Type in all cases: functional
For assay [1], the system named is Staphylococcus aureus. As to the kind of experiment: Antibacterial activity against methicillin-resistant Staphylococcus aureus 59 assessed as reduction in bacterial growth incubated for 24 hrs in presence of oxacillin by CLSI based serial dilution method.
Assay [2] concerns Acinetobacter. As to the kind of experiment: Antibacterial activity against Acinetobacter sp. 122 assessed as reduction in bacterial growth incubated for 24 hrs by CLSI based serial dilution method.
In assay [3] the test system is Staphylococcus aureus. As to the kind of experiment: Antibacterial activity against methicillin-resistant Staphylococcus aureus 58 assessed as fractional inhibitory concentration incubated for 24 hrs in presence of oxacillin by CLSI based serial dilution method.
Assay [4] concerns Acinetobacter. The assay can be described thus: Antibacterial activity against Acinetobacter sp. 121 assessed as reduction in bacterial growth incubated for 24 hrs by CLSI based serial dilution method.
Assay [5] relates to Staphylococcus aureus. As to the kind of experiment: Antibacterial activity against Staphylococcus aureus ATCC 25923 assessed as reduction in bacterial growth incubated for 24 hrs by CLSI based serial dilution method.
Assay [6] relates to Staphylococcus aureus. The assay can be described thus: Antibacterial activity against methicillin-resistant Staphylococcus aureus 114 assessed as reduction in bacterial growth incubated for 24 hrs in presence of oxacillin by CLSI based serial dilution method.
The test system of assay [7] is Staphylococcus aureus. The assay can be described thus: Antibacterial activity against methicillin-resistant Staphylococcus aureus 114 assessed as fractional inhibitory concentration incubated for 24 hrs in presence of oxacillin by CLSI based serial dilution method.
Assay [8] deals with Klebsiella pneumoniae. The assay can be described thus: Antibacterial activity against Klebsiella pneumoniae ATCC BAA-1705 assessed as reduction in bacterial growth incubated for 24 hrs by CLSI based serial dilution method.
The subject of assay [9] is Staphylococcus aureus. The assay can be described thus: Antibacterial activity against methicillin-resistant Staphylococcus aureus 124 assessed as fractional inhibitory concentration incubated for 24 hrs in presence of oxacillin by CLSI based serial dilution method.
For assay [10], the system named is Staphylococcus aureus. The assay can be described thus: Antibacterial activity against Staphylococcus aureus assessed as reduction in bacterial growth incubated for 24 hrs in presence of oxacillin by CLSI based serial dilution method.
For assay [11], the system named is Staphylococcus aureus. The assay can be described thus: Antibacterial activity against methicillin-resistant Staphylococcus aureus 124 assessed as reduction in bacterial growth incubated for 24 hrs in presence of oxacillin by CLSI based serial dilution method.
For assay [12], the system named is Escherichia coli. As to the kind of experiment: Antibacterial activity against Escherichia coli ATCC 25922 assessed as reduction in bacterial growth incubated for 24 hrs by CLSI based serial dilution method.
Assay [13] concerns Staphylococcus aureus. The assay can be described thus: Antibacterial activity against methicillin-resistant Staphylococcus aureus 59 assessed as fractional inhibitory concentration incubated for 24 hrs in presence of oxacillin by CLSI based serial dilution method.
In assay [14] the test system is Staphylococcus aureus. The assay can be described thus: Antibacterial activity against methicillin-resistant Staphylococcus aureus 124 assessed as reduction in bacterial growth incubated for 24 hrs by CLSI based serial dilution method.
The subject of assay [15] is Acinetobacter. As to the kind of experiment: Antibacterial activity against Acinetobacter sp. 103 assessed as reduction in bacterial growth incubated for 24 hrs by CLSI based serial dilution method.
Assay [16] relates to Escherichia coli. As to the kind of experiment: Antibacterial activity against Escherichia coli ATCC 35218 assessed as reduction in bacterial growth incubated for 24 hrs by CLSI based serial dilution method.
In assay [17] the test system is Staphylococcus aureus. As to the kind of experiment: Antibacterial activity against methicillin-resistant Staphylococcus aureus 58 assessed as fractional inhibitory concentration index incubated for 24 hrs in presence of oxacillin by CLSI based serial dilution method.
The test system of assay [18] is Staphylococcus aureus. The assay can be described thus: Antibacterial activity against methicillin-resistant Staphylococcus aureus 124 assessed as fractional inhibitory concentration index incubated for 24 hrs in presence of oxacillin by CLSI based serial dilution method.
Assay [19] has as its system Staphylococcus aureus. The assay can be described thus: Antibacterial activity against methicillin-resistant Staphylococcus aureus 58 assessed as reduction in bacterial growth incubated for 24 hrs by CLSI based serial dilution method.
The subject of assay [20] is Staphylococcus aureus. As to the kind of experiment: Antibacterial activity against Staphylococcus aureus assessed as fractional inhibitory concentration index incubated for 24 hrs in presence of oxacillin by CLSI based serial dilution method.
Assay [21] concerns Staphylococcus aureus. The assay can be described thus: Antibacterial activity against methicillin-resistant Staphylococcus aureus 58 assessed as reduction in bacterial growth incubated for 24 hrs in presence of oxacillin by CLSI based serial dilution method.
For assay [22], the system named is Staphylococcus aureus. The assay can be described thus: Antibacterial activity against methicillin-resistant Staphylococcus aureus 59 assessed as fractional inhibitory concentration index incubated for 24 hrs in presence of oxacillin by CLSI based serial dilution method.
In assay [23] the test system is Klebsiella pneumoniae. As to the kind of experiment: Antibacterial activity against Klebsiella pneumoniae ATCC BAA-1706 assessed as reduction in bacterial growth incubated for 24 hrs by CLSI based serial dilution method.
The test system of assay [24] is Pseudomonas aeruginosa. As to the kind of experiment: Antibacterial activity against Pseudomonas aeruginosa ATCC 27853 assessed as reduction in bacterial growth incubated for 24 hrs by CLSI based serial dilution method.
The test system of assay [25] is Staphylococcus aureus. As to the kind of experiment: Antibacterial activity against methicillin-resistant Staphylococcus aureus 59 assessed as reduction in bacterial growth incubated for 24 hrs by CLSI based serial dilution method.
Assay [26] relates to Staphylococcus aureus. As to the kind of experiment: Antibacterial activity against methicillin-resistant Staphylococcus aureus 114 assessed as reduction in bacterial growth incubated for 24 hrs by CLSI based serial dilution method.
Assay [27] relates to Staphylococcus aureus. The assay can be described thus: Antibacterial activity against Staphylococcus aureus assessed as fractional inhibitory concentration incubated for 24 hrs in presence of oxacillin by CLSI based serial dilution method.
Assay [28] concerns Staphylococcus aureus. As to the kind of experiment: Antibacterial activity against methicillin-resistant Staphylococcus aureus 114 assessed as fractional inhibitory concentration index incubated for 24 hrs in presence of oxacillin by CLSI based serial dilution method.
The subject of assay [29] is Acinetobacter. As to the kind of experiment: Antibacterial activity against Acinetobacter sp. 126 assessed as reduction in bacterial growth incubated for 24 hrs by CLSI based serial dilution method.
For assay [30], the system named is Staphylococcus aureus. As to the kind of experiment: Antibacterial activity against Staphylococcus aureus ATCC 29213 assessed as reduction in bacterial growth incubated for 24 hrs by CLSI based serial dilution method.
The subject of assay [31] is Enterococcus faecalis. As to the kind of experiment: Antibacterial activity against Enterococcus faecalis ATCC 29212 assessed as reduction in bacterial growth incubated for 24 hrs by CLSI based serial dilution method.

We go through three compounds from ChEMBL document CHEMBL4819100, “Antibacterial and synergistic activity of 6β-hydroxy-3-oxolup-20(29)-en-28-oic acid (6β-hydroxy betunolic acid) isolated from Schumacheria castaneifolia vahl” (2021).

Converted amounts (≈) assume the structure as drawn. Bounds are passed on as bounds.

Turning to `C=C(C)[C@@H]1CC[C@]2(C(=O)O)CC[C@]3(C)[C@H](CC[C@@H]4[C@@]5(C)CCC(=O)C(C)(C)[C@@H]5[C@H](O)C[C@]43C)[C@@H]12`, the MIC was 8 µg/mL in assay [1]; over 1020 µg/mL in [2]; over 1020 µg/mL in assay [4]; 16 µg/mL (≈ 34 µM) in assay [5]; 16 µg/mL in assay [6]; over 1020 µg/mL in [8]. Also, the MIC in [10] is 8 µg/mL; in assay [11], 32 µg/mL; in assay [12] it was over 1020 µg/mL; in assay [14], 32 µg/mL (≈ 68 µM); in [15], over 1020 µg/mL; in [16], over 1020 µg/mL. Moreover, the MIC in assay [19] was 32 µg/mL (≈ 68 µM); in assay [21], 16 µg/mL; in [23] it was over 1020 µg/mL; in assay [24], over 1020 µg/mL; in [25], 16 µg/mL (≈ 34 µM); in [26], 32 µg/mL (≈ 68 µM). Further, the results for the MIC in [29], in assay [30] and in [31] were over 1020 µg/mL, 32 µg/mL (≈ 68 µM) and 32 µg/mL (≈ 68 µM), respectively. The FIC in [3] was 0.5; in assay [7] it was 0.5; in assay [9], 1; in assay [13] it was 0.5; in assay [27] it was 0.25. The “fractional inhibitory concentration index (FICI)” value in assay [17] is reported as 1; in [18] it was 2; in assay [20], 0.49; in [22], 0.75; in [28], 0.53.

Consider `C[C@@H](O)[C@H]1C(=O)N2C(C(=O)O)=C(S[C@@H]3CN[C@H](C(=O)N(C)C)C3)[C@H](C)[C@H]12` [MEROPENEM], for which the MIC in assay [2] came to 128 µg/mL (≈ 334 µM); in assay [4] it was 64 µg/mL (≈ 167 µM); in [8] it was 8 µg/mL (≈ 20.9 µM); in assay [12], 0.008 µg/mL (≈ 0.0209 µM); in assay [15], 64 µg/mL (≈ 167 µM); in [16], 0.008 µg/mL (≈ 0.0209 µM). The MIC is 0.12 µg/mL (≈ 0.313 µM) in [24] and 128 µg/mL (≈ 334 µM) in [29].

Take `Cc1onc(-c2ccccc2)c1C(=O)N[C@@H]1C(=O)N2[C@@H]1SC(C)(C)[C@@H]2C(=O)O` [OXACILLIN]: the MIC came out at 16 µg/mL (≈ 39.9 µM) in assay [14]; 16 µg/mL (≈ 39.9 µM) in assay [19]; 16 µg/mL (≈ 39.9 µM) in [25]; 16 µg/mL (≈ 39.9 µM) in [26]; 0.12 µg/mL (≈ 0.299 µM) in [30]; 8 µg/mL (≈ 19.9 µM) in [31].

Broadly, the MIC is the lowest concentration that inhibits growth of the organism.
